Test results taken from the supplement of paper PMC9912026.

Test system: A375_NRAS_Q61K_DOXind
Assay: pERK immunofluorescence relative to doxycycline-induced cells with 1 uM vemurafenib alone; higher = more ERK phosphorylation (less pathway inhibition)
Details: drug treatment time 24 h, doxycycline 1000 ng/mL, doxycycline pre-induction time 24 h, vemurafenib background 1 µM
Summary of the method: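 A375 cells with doxycycline-inducible FLAG-tagged mutant NRAS were given doxycycline or mock for 24 h. They then received two-drug dose combinations with a third drug held at 1 uM for 24 h. Fixed cells were stained for phospho-ERK T202/Y204 and imaged at 10× on an Operetta, with FLAG-negative cells excluded. The cytosolic population mean is normalised to induced cells given the 1 uM drug alone; the value is the mean of 2 technical replicates. pERK was measured by immunofluorescence with FLAG-negative cells excluded. Averages of 2 technical replicates.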

CNc1ncc2cc(-c3cc(NC(=O)NCCC(C)(C)C)c(F)cc3C)c(C)nc2n1 + O=C(c1ccc(F)c(F)c1Nc1ccc(I)cc1F)N1CC(O)([C@@H]2CCCCN2)C1 [Cobimetinib]
pERK immunofluorescence
Details	drug B concentration 0 µM	drug B concentration 0.0001 µM	drug B concentration 0.000316228 µM	drug B concentration 0.001 µM	drug B concentration 0.00316228 µM	drug B concentration 0.01 µM	drug B concentration 0.0316228 µM	drug B concentration 0.1 µM	drug B concentration 0.316228 µM	drug B concentration 1 µM
drug A concentration 0 µM	–	1.08	1.08	1.06	1.06	0.844	0.515	0.168	0.0479	0.0212
drug A concentration 0.000316228 µM	0.724	0.706	0.786	0.747	0.709	0.579	0.323	0.0754	0.026	0.0165
drug A concentration 0.001 µM	0.696	0.745	0.758	0.771	0.687	0.45	0.16	0.0453	0.0201	0.016
drug A concentration 0.00316228 µM	0.664	0.697	0.767	0.651	0.592	0.268	0.0865	0.0262	0.0166	0.0158
drug A concentration 0.01 µM	0.583	0.608	0.593	0.537	0.359	0.109	0.0388	0.0196	0.0161	0.0166
drug A concentration 0.0316228 µM	0.455	0.528	0.47	0.389	0.185	0.0635	0.0285	0.0172	0.0158	0.0155
drug A concentration 0.1 µM	0.306	0.31	0.287	0.187	0.0869	0.0387	0.0223	0.0174	0.0169	0.0168
drug A concentration 0.316228 µM	0.122	0.116	0.108	0.077	0.0399	0.0224	0.0172	0.0164	0.0168	0.017
drug A concentration 1 µM	0.0463	0.045	0.0414	0.0293	0.0209	0.0181	0.0173	0.0169	0.0172	0.0172
drug A concentration 3.16228 µM	0.0225	0.0225	0.0215	0.0203	0.0207	0.0173	0.0169	0.0175	0.0169	0.0164
drug A concentration 10 µM	0.0198	0.0196	0.0203	0.0186	0.0186	0.02	0.0189	0.0179	0.0182	0.0184
